Series [1] concerns retinal explant tissue cultures. In kind it is cell-based. The note with it: 6 h at 37° C, WT retinas. The protocol:
FIGS. 6(A-B) illustrate images and a plot showing retinal degeneration is induced by atRAL in ex vivo retinal cultures. Retinas were removed from the eyecups of 4-wk-old C57BL/6J mice and cultured for 16 h at 37° C. Then retinas were incubated further with/without 30 μM of atRAL in the presence/absence of experimental drugs for 6 h at 37° C. Vehicle (DMSO), retinylamine (Ret-NH2) at 30 μM, or apocynin (Apo) at 300 μM was applied, together with atRAL. (A) Retinal morphology was examined after incubation with atRAL and with and without drugs. […] (B) TUNEL staining was performed with the ApoTag Peroxidase in Situ Apoptosis Detection Kit. Counter nuclear staining was accomplished with methyl green. […] (D) Retinas were removed from eyecups of 4-wk-old C57BL/6J mice and cultured with or without 30 μM of atRAL for 24 h at 37° C. After incubation, retinas were washed twice with PBS and then examined by TPM. Spectra from photoreceptor outer segments are shown (Left) along with representative magnified images (Right). Spectra from retinas cultured with atRAL featured a broad maximum absorption at 600 nm.
(§1) Eyes were enucleated, washed with a penicillin-streptomycin solution (Sigma), and rinsed with Hank's balanced salt solution (HyClone). Prepared mouse eyecups were flattened by creating retinal flaps. Flattened retinas were transferred onto filter paper and the retina was gently peeled off from the RPE/choroid. All these procedures were performed under a surgical microscope. Each retina on filter paper was placed into a well of a 12-well plate filled with 0.5 mL of DMEM (HyClone) with 10% FBS and incubated for 16 h at 37° C. Retinas then were washed twice with 0.5 mL of fresh DMEM containing 10% FBS and finally incubated again with/without 30 μM of atRAL for 6 h at 37° C. A lactate dehydrogenase (LDH) assay was performed to determine cellular death rates with a LDH activity assay kit (BioVision). The percentage of cytotoxicity was calculated as [(a retina with atRAL—a retina without atRAL)/(lysis control—a retina without atRAL)]×100.
The primary cause of acute retinal degeneration after bright light exposure in Abca4^−/−Rdh8^−/− mice is the delayed clearance of atRAL from photoreceptors. […] Thus, to examine whether retinal tissue lacking RPE cells can display degenerative changes similar to those observed in in vivo, we performed ex vivo culture experiments with retinal explants coincubated with atRAL. Neural retinas were dissected from eyes of 4-wk-old WT mice, and incubated with 30 μM of atRAL in the presence of control vehicle, 30 μM of retinylamine or 300 μM of apocynin for 6 h at 37° C. […] Cell death rates were calculated by measuring lactate dehydrogenase released into tissue culture supernatants from dying cells.

For series [2], the system named is Abca4^−/−Rdh8^−/− (Dko) retinal cultures. The series can be described thus: ex vivo Dko retinal cultures incubated with atRAL (morphology, LDH). The note with it: 6 h at 37° C. In kind it is cell-based. The protocol:
FIGS. 11(A-B) illustrate images showing retinal degeneration is induced by atRAL in ex vivo Dko retinal cultures. Retinas were removed from the eyecups of 4-wk-old Abca4^−/−Rdh8^−/− (Dko) mice and cultured for 16 h at 37° C. Retinas were then incubated further with/without 30 μM of atRAL in the presence/absence of experimental drugs for 6 h at 37° C. Vehicle (DMSO), retinylamine (Ret-NH2) at 30 μM, or apocynin (Apo) at 300 μM was applied together with atRAL. (A) Retinal morphology was examined after incubation with atRAL. […] Bars indicate SD (n=3). *P<0.05.
as §1

In the next series the test system is Abca4^−/−Rdh8^−/− mice. Nature of the series: light-induced retinal degeneration in Abca4^−/−Rdh8^−/− mice, TPM and histology at day 7. As to conditions: Ret-NH2 1 mg per mouse oral gavage 16 h before, or Apo 1 mg/mouse i.p. 30 min before 10,000 lx light for 60 min; day 7.

Molecules are shown by their SMILES. “Also recorded” adds a separate entry of the source.

On to `COc1cc(C(C)=O)ccc1O` [apocynin], for which the “protection of retinal morphology against atRAL-induced damage” value in series [1] (Ret-NH2 30 μM or apocynin 300 μM together with 30 μM atRAL) is “protected the ONL and INL”. Also, the “prevention of atRAL-induced photoreceptor apoptosis (TUNEL staining)” value in series [1] (retinylamine 30 μM or apocynin 300 μM together with 30 μM atRAL, listed as APO) was “protected the ONL and INL”. Further, in series [2] (Ret-NH2 30 μM or Apo 300 μM together with 30 μM atRAL, Dko retinas), the “effect on atRAL-induced cell death rate (LDH assay)” value is given as “reduced”. Also, in the series on Abca4^−/−Rdh8^−/− mice, the “light-induced retinal degeneration (retinal histology)” value was “can be prevented; also recorded: conferred protection”.
On to `CC1=C(/C=C/C(C)=C/C=C/C(C)=C/C=O)C(C)(C)CCC1` [atRAL, all-trans-retinaldehyde], for which, in series [2] (30 μM atRAL with vehicle, Dko retinas), the “retinal morphology (ONL) after incubation with atRAL” value is on record as “markedly disrupted”. In addition, in series [2] (30 μM atRAL, Dko retinal culture supernatants), the “retinal cell death (LDH assay) caused by atRAL” value is recorded as “caused retinal cell death”.

Source of the values: US20160345827A1, “TWO-PHOTON MICROSCOPY IMAGING RETINA CELL DAMAGE” (POLGENIX, INC., priority 2014, published 2016).
